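Compound exposure: 48 hours, 5 concentrations, 96-well plates. GI50: concentration for 50% inhibition of growth. TGI: concentration producing complete growth inhibition.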
What was measured:
Assay in all cases: NCI-60 cell line screen, 48 h
[1] = test system: NCI-H23 lung
[2] = test system: CCRF-CEM leukemia
[3] = test system: A498 renal
[4] = test system: UACC-257 melanoma
[5] = test system: OVCAR-5 ovarian
[6] = test system: SK-MEL-2 melanoma
[7] = test system: HT29 colon
[8] = test system: 786-0 renal
[9] = test system: MOLT-4 leukemia
[10] = test system: SF-539 CNS
[11] = test system: COLO 205 colon
[12] = test system: LOX IMVI melanoma
[13] = test system: OVCAR-3 ovarian
[14] = test system: MDA-MB-231 breast
[15] = test system: T-47D breast
[16] = test system: EKVX NSCLC
[17] = test system: MDA-N
[18] = test system: RXF 393 renal
[19] = test system: SW-620 colon
[20] = test system: M14 melanoma
[21] = test system: BT-549 breast
[22] = test system: DU-145 prostate
[23] = test system: CAKI-1 renal
[24] = test system: SK-MEL-5 melanoma
[25] = test system: HCT-15 colon
[26] = test system: OVCAR-8 ovarian
[27] = test system: SN12C renal
[28] = test system: A549 NSCLC
[29] = test system: SK-OV-3 ovarian
[30] = test system: HCC-2998 colon
[31] = test system: K-562 leukemia
[32] = test system: IGROV1 ovarian
[33] = test system: MALME-3M melanoma
[34] = test system: UO-31 renal
[35] = test system: NCI/ADR-RES ovarian
[36] = test system: MCF7 breast
[37] = test system: NCI-H460 lung
[38] = test system: HL-60(TB) leukemia
[39] = test system: U251 CNS
[40] = test system: SNB-19 CNS
[41] = test system: SF-295 CNS
[42] = test system: HOP-92 NSCLC
[43] = test system: ACHN renal
[44] = test system: TK-10 renal
[45] = test system: UACC-62 melanoma
[46] = test system: PC-3 prostate
[47] = test system: SK-MEL-28 melanoma
[48] = test system: NCI-H226 lung
[49] = test system: HCT-116 colon
[50] = test system: SR leukemia
[51] = test system: SNB-75 CNS
[52] = test system: HS 578T breast
[53] = test system: HOP-62 NSCLC
[54] = test system: RPMI-8226 leukemia
[55] = test system: OVCAR-4 ovarian
[56] = test system: SF-268 CNS
[57] = test system: KM12 colon
[58] = test system: MDA-MB-435

`CCOC(=O)c1c(C)cc(=O)n2c1[nH]c1ccccc12` was tested, and the TGI [1] was over 100 µM, the TGI [2] was over 100 µM and the TGI [3] was over 100 µM. It also gave a TGI [4] of over 100 µM, a TGI [5] of over 100 µM and a TGI [6] of over 100 µM. For the same compound, the TGI [7] was over 100 µM, the TGI [8] was over 100 µM and the TGI [9] was over 100 µM. For the same compound, the TGI [10] was over 100 µM, the TGI [11] was over 100 µM and the TGI [12] was over 100 µM. It also gave a TGI [13] of over 100 µM, a TGI [14] of over 100 µM and a TGI [15] of over 100 µM. For the same compound, the TGI [16] was over 100 µM, the TGI [17] was over 100 µM and the TGI [18] was over 100 µM. For the same compound, the TGI [19] was over 100 µM, the TGI [20] was over 100 µM and the TGI [21] was over 100 µM. The TGI [22] was over 100 µM, the TGI [23] was 50.9 µM and the TGI [24] was over 100 µM. The TGI [25] was over 100 µM, the TGI [26] was over 100 µM and the TGI [27] was over 100 µM. The TGI [28] was over 100 µM, the TGI [29] was over 100 µM and the TGI [30] was over 100 µM. The TGI [31] was over 100 µM, the TGI [32] was over 100 µM and the TGI [33] was over 100 µM. It also gave a TGI [34] of over 100 µM, a TGI [35] of over 100 µM and a TGI [36] of over 100 µM. It also gave a TGI [37] of over 100 µM, a TGI [38] of over 100 µM and a TGI [39] of over 100 µM. It also gave a TGI [40] of over 100 µM, a TGI [41] of over 100 µM and a TGI [42] of over 100 µM. It also gave a TGI [43] of over 100 µM, a TGI [44] of over 100 µM and a TGI [45] of over 100 µM. The TGI [46] was over 100 µM, the TGI [47] was over 100 µM and the TGI [48] was over 100 µM. The TGI [49] was over 100 µM.

In the case of `O=C(Nc1ccccc1O)c1ccc(CNc2ccnc(C(F)(F)F)c2)cc1`, the GI50 [1] is reported as 4.72 µM, the TGI [1] is reported as 81.4 µM and the GI50 [2] is reported as 0.354 µM. For the same compound, the TGI [2] was 12.8 µM, the GI50 [3] was 2.84 µM and the TGI [3] was 12.2 µM. For the same compound, the GI50 [4] was 8.4 µM, the TGI [4] was over 100 µM and the GI50 [5] was 16.5 µM. It also gave a TGI [5] of over 100 µM, a GI50 [50] of 2 µM and a TGI [50] of over 100 µM. It also gave a GI50 [51] of 7.26 µM, a TGI [51] of 48.4 µM and a GI50 [52] of 2.59 µM. It also gave a TGI [52] of 32.9 µM, a GI50 [7] of 6.42 µM and a TGI [7] of over 100 µM. The GI50 [53] was 5.54 µM, the TGI [53] was 47.6 µM and the GI50 [8] was 3.36 µM. It also gave a TGI [8] of 13.6 µM, a GI50 [9] of 2.38 µM and a TGI [9] of 28.5 µM. For the same compound, the GI50 [10] was 1.89 µM, the TGI [10] was 23.1 µM and the GI50 [11] was 14.7 µM. For the same compound, the TGI [11] was 31.3 µM, the GI50 [12] was 2.8 µM and the TGI [12] was 46 µM. For the same compound, the GI50 [13] was 4.88 µM, the TGI [13] was 21.9 µM and the GI50 [14] was 9.29 µM. It also gave a TGI [14] of 50.6 µM, a GI50 [54] of 0.5 µM and a TGI [54] of 5.09 µM. For the same compound, the GI50 [15] was 2.5 µM, the TGI [15] was 24.8 µM and the GI50 [16] was 4.19 µM. The TGI [16] was over 100 µM, the GI50 [18] was 17.3 µM and the TGI [18] was 43.3 µM. The GI50 [19] was 5.75 µM, the TGI [19] was 23 µM and the GI50 [20] was 3.86 µM. The TGI [20] was 38 µM, the GI50 [21] was 3.43 µM and the TGI [21] was 50 µM. For the same compound, the GI50 [22] was 3.38 µM, the TGI [22] was 19.4 µM and the GI50 [23] was 1.74 µM. It also gave a TGI [23] of 14.3 µM, a GI50 [24] of 2.2 µM and a TGI [24] of 10.2 µM. The GI50 [25] was 11.8 µM, the TGI [25] was over 100 µM and the GI50 [26] was 5.15 µM. It also gave a TGI [26] of over 100 µM, a GI50 [55] of 17.2 µM and a TGI [55] of over 100 µM. For the same compound, the GI50 [27] was 4.61 µM, the TGI [27] was over 100 µM and the GI50 [28] was 12 µM. For the same compound, the TGI [28] was over 100 µM, the GI50 [29] was 5.41 µM and the TGI [29] was 41.7 µM. The GI50 [30] was 10.2 µM, the TGI [30] was 26.5 µM and the GI50 [31] was 2.39 µM. For the same compound, the TGI [31] was over 100 µM, the GI50 [32] was 7.64 µM and the TGI [32] was 32.9 µM. It also gave a GI50 [33] of 1.03 µM, a TGI [33] of 11.6 µM and a GI50 [34] of 2.15 µM. For the same compound, the TGI [34] was 14 µM, the GI50 [35] was 2.41 µM and the TGI [35] was 54.4 µM. It also gave a GI50 [36] of 4.43 µM, a TGI [36] of over 100 µM and a GI50 [37] of 3.78 µM. For the same compound, the TGI [37] was 83.4 µM, the GI50 [38] was 1.85 µM and the TGI [38] was 8.03 µM. For the same compound, the GI50 [39] was 4.73 µM, the TGI [39] was over 100 µM and the GI50 [40] was 10.4 µM. It also gave a TGI [40] of 33.9 µM, a GI50 [41] of 3.16 µM and a TGI [41] of 17.1 µM. The GI50 [42] was 0.699 µM, the TGI [42] was 15.4 µM and the GI50 [43] was 2.59 µM. For the same compound, the TGI [43] was over 100 µM, the GI50 [56] was 4.55 µM and the TGI [56] was 26.3 µM. It also gave a GI50 [44] of 11.3 µM, a TGI [44] of 36 µM and a GI50 [45] of 1.3 µM. The TGI [45] was 17.6 µM, the GI50 [46] was 2.72 µM and the TGI [46] was 48.4 µM. For the same compound, the GI50 [47] was 3.52 µM, the TGI [47] was 23.4 µM and the GI50 [57] was 7.01 µM. For the same compound, the TGI [57] was 23.3 µM, the GI50 [58] was 3.47 µM and the TGI [58] was 20.9 µM. The GI50 [48] was 6.56 µM, the TGI [48] was 33.8 µM and the GI50 [49] was 3.96 µM. It also gave a TGI [49] of 34.9 µM.

Reference: PubChem BioAssay (NCI)
